{
  "source": "patent US20150105386A1",
  "about": "“4-(4-PYRIDINYL)-BENZAMIDES AND THEIR USE AS ROCK ACTIVITY MODULATORS” (AbbVie Deutschland GmbH & Co KG, priority 2007, published 2015)",
  "data": [
    {"target": "T1, hROCK-2 (Homo sapiens, UniProt O75116)", "T1 construct": "purchased Upstate", "T1 sequence (O75116 whole entry)": "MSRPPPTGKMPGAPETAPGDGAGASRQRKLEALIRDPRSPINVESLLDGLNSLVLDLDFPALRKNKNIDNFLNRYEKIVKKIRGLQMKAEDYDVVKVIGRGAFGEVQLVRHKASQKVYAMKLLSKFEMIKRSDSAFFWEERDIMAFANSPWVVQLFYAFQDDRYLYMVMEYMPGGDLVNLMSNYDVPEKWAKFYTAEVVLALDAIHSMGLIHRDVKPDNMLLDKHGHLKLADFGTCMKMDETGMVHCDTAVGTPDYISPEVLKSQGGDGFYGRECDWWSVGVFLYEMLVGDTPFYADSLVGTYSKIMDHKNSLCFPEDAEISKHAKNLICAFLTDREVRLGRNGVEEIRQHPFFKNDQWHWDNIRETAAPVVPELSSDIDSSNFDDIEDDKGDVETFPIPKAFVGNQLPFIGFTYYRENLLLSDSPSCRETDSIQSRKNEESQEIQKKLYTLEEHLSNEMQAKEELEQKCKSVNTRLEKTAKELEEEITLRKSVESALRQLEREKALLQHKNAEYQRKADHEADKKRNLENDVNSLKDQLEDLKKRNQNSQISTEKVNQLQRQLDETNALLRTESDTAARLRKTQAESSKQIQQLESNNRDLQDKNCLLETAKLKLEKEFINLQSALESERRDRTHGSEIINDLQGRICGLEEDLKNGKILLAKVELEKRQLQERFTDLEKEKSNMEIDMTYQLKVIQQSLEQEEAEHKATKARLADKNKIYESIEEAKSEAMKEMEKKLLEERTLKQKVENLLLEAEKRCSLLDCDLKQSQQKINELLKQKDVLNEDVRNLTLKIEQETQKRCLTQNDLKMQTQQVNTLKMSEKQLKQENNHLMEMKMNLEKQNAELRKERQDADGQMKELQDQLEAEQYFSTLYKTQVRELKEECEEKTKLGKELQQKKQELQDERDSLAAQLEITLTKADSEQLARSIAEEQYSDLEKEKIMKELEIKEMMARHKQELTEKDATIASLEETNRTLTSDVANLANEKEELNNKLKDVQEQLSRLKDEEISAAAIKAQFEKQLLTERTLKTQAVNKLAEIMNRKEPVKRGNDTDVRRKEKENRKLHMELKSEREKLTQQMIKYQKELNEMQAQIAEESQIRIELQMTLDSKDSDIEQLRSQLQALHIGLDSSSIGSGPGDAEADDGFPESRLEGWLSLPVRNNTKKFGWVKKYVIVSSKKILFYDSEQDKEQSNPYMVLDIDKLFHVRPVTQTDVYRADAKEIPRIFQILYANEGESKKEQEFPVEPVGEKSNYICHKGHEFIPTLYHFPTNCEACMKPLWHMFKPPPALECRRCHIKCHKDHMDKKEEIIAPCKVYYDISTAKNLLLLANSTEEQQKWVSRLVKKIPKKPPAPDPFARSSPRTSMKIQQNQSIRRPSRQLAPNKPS", "test": "ROCK-2 Assay (33P-ATP FlashPlate kinase assay, biotinylated S6 peptide)", "format": "biochemical", "details": "hROCK-2 0.8 nM, 5 μM ATP, 1.5 μM biotinylated S6 peptide, room temperature, 60 min", "protocol": "The reaction is stopped by addition of 150 μl of 0.1 M EDTA in Dulbecco's PBS. 170 μl from each well are loaded onto a FlashPlate (PerkinElmer) and incubated at room temperature for 30 min.", "units": {"Ki": "nM"}, "values": [
      {"compound": "CCOc1cc(-c2ccncc2)ccc1C(=O)N[C@H](C)c1cccc(OC)c1", "note": "[Example 249, 2-ethoxy-N—[(R)-1-(3-methoxy-phenyl)-ethyl]-4-pyridin-4-yl-benzamide]", "Ki": "< 50"},
      {"compound": "C[C@@H](NC(=O)c1ccc(-c2ccncc2)c(F)c1)c1cccc2ccccc12", "note": "[Example 217, 3-fluoro-N—((R)-1-naphthalen-1-yl-ethyl)-4-pyridin-4-yl-benzamide]", "Ki": "< 50"},
      {"compound": "O=C(NC(CN1CCCCC1)c1ccccc1)c1ccc(-c2ccncc2)cc1", "note": "(centres unmarked) [Example 36, N-(1-phenyl-2-piperidin-1-ylethyl)-4-pyridin-4-ylbenzamide]", "Ki": "< 50"},
      {"compound": "C[C@@H](NC(=O)c1ccc(-c2ccncc2)cc1)c1cccc2ccccc12", "note": "[Example 47, N-[(1R)-1-(1-naphthyl)ethyl]-4-pyridin-4-ylbenzamide]", "Ki": "< 50"},
      {"compound": "COc1ccc(C(C)NC(=O)c2ccc(-c3ccncc3)cc2)c2ccccc12", "note": "(centres unmarked) [Example 189, N-[1-(4-methoxy-naphthalen-1-yl)-ethyl]-4-pyridin-4-yl-benzamide]", "Ki": "50 to 500"},
      {"compound": "COc1cccc([C@@H](C)NC(=O)c2ccc(-c3ccncc3)c(F)c2)c1", "note": "[Example 244, 3-fluoro-N—[(R)-1-(3-methoxy-phenyl)-ethyl]-4-pyridin-4-yl-benzamide]", "Ki": "< 50"},
      {"compound": "CC(NC(=O)c1ccc(-c2ccncc2)cc1)c1cccnc1", "note": "(centres unmarked) [Example 79, 4-pyridin-4-yl-N-(1-pyridin-3-ylethyl)benzamide]", "Ki": "50 to 500"},
      {"compound": "COc1cccc([C@@H](C)NC(=O)c2ccc(-c3ccncc3C)cc2)c1", "note": "[Example 101, N—[(R)-1-(3-Methoxy-phenyl)-ethyl]-4-(3-methyl-pyridin-4-yl)-benzamide]", "Ki": "< 50"},
      {"compound": "COc1cccc([C@@H](C)NC(=O)c2ccc(-c3cc(F)ncc3C)cc2)c1", "note": "[Example 248, 4-(2-fluoro-5-methyl-pyridin-4-yl)-N—[(R)-1-(3-methoxy-phenyl)-ethyl]-benzamide]", "Ki": "< 50"},
      {"compound": "COc1cccc([C@@H](C)NC(=O)c2ccc(-c3ccncc3)c(OC)c2)c1", "note": "[Example 97, 3-methoxy-N—[(R)-1-(3-methoxy-phenyl)-ethyl]-4-pyridin-4-yl-benzamide]", "Ki": "< 50"},
      {"compound": "C[C@@H](NC(=O)c1ccc(-c2ccncc2)cc1)c1ccccc1C(F)(F)F", "note": "[Example 86, 4-pyridin-4-yl-N-{(1R)-1-[2-(trifluoromethyl)phenyl]ethyl}benzamide]", "Ki": "50 to 500"},
      {"compound": "COc1cccc([C@H](C)NC(=O)c2ccc(-c3ccncc3)cc2OC)c1", "note": "[Example 130, 2-methoxy-N—[(S)-1-(3-methoxy-phenyl)-ethyl]-4-pyridin-4-yl-benzamide]", "Ki": "50 to 500"},
      {"compound": "C[C@@H](NC(=O)c1ccc(-c2ccncc2)c(F)c1)c1ccc2ccccc2c1", "note": "[Example 229, 3-fluoro-N—((R)-1-naphthalen-2-yl-ethyl)-4-pyridin-4-yl-benzamide]", "Ki": "50 to 500"},
      {"compound": "Cc1cnccc1-c1ccc(C(=O)N[C@H](C)c2ccc(Cl)cc2)cc1", "note": "[Example 168, N—[(R)-1-(4-chloro-phenyl)-ethyl]-4-(3-methyl-pyridin-4-yl)-benzamide]", "Ki": "50 to 500"},
      {"compound": "Cc1cnccc1-c1ccc(C(=O)N[C@H](C)c2ccccc2)cc1", "note": "[Example 157, 4-(3-methyl-pyridin-4-yl)-N—((R)-1-phenyl-ethyl)-benzamide]", "Ki": "< 50"},
      {"compound": "CC(NC(=O)c1ccc(-c2ccncc2)cc1)c1ccco1", "note": "(centres unmarked) [Example 53]", "Ki": "50 to 500"},
      {"compound": "O=C(N[C@H](CO)Cc1c[nH]c2ccccc12)c1ccc(-c2ccncc2)cc1", "note": "[Example 14, N-[(1S)-2-hydroxy-1-(1H-indol-3-ylmethyl)ethyl]-4-pyridin-4-ylbenzamide]", "Ki": "50 to 500"},
      {"compound": "Cc1cnccc1-c1ccc(C(=O)N[C@H](C)c2ccc(Br)cc2)cc1", "note": "[Example 166, N—[(R)-1-(4-bromo-phenyl)-ethyl]-4-(3-methyl-pyridin-4-yl)-benzamide]", "Ki": "50 to 500"},
      {"compound": "O=C(NC(c1ccccc1)c1ccc(Cl)cc1)c1ccc(-c2ccncc2)cc1", "note": "(centres unmarked) [Example 49, N-[(4-chlorophenyl)(phenyl)methyl]-4-pyridin-4-ylbenzamide]", "Ki": "50 to 500"},
      {"compound": "COc1cc(-c2ccncc2)ccc1C(=O)N[C@H](C)c1cccc(C(F)(F)F)c1", "note": "[Example 132, 2-methoxy-4-pyridin-4-yl-N—[(R)-1-(3-trifluoromethyl-phenyl)-ethyl]-benzamide]", "Ki": "< 50"},
      {"compound": "O=C(NC(CO)c1cccc2ccccc12)c1ccc(-c2ccncc2)cc1", "note": "(centres unmarked) [Example 187, N-(2-hydroxy-1-naphthalen-1-yl-ethyl)-4-pyridin-4-yl-benzamide]", "Ki": "< 50"},
      {"compound": "O=C(NC(Cn1ccnc1)c1ccccc1)c1ccc(-c2ccncc2)cc1", "note": "(centres unmarked) [Example 35, N-[2-(1H-imidazol-1-yl)-1-phenylethyl]-4-pyridin-4-ylbenzamide]", "Ki": "< 50"},
      {"compound": "Cc1cnccc1-c1ccc(C(=O)N[C@H](C)c2ccc3ccccc3c2)cc1", "note": "[Example 170, 4-(3-methyl-pyridin-4-yl)-N—((R)-1-naphthalen-2-yl-ethyl)-benzamide]", "Ki": "50 to 500"},
      {"compound": "O=C(NC(CN1CCOCC1)c1ccccc1)c1ccc(-c2ccncc2)cc1", "note": "(centres unmarked) [Example 32, N-(2-morpholin-4-yl-1-phenylethyl)-4-pyridin-4-ylbenzamide]", "Ki": "< 50"},
      {"compound": "Cc1ccc(C(CO)NC(=O)c2ccc(-c3ccncc3)cc2)c(C)c1", "note": "(centres unmarked) [Example 40, N-[1-(2,4-dimethylphenyl)-2-hydroxyethyl]-4-pyridin-4-ylbenzamide]", "Ki": "50 to 500"},
      {"compound": "CN(C)CC(NC(=O)c1ccc(-c2ccncc2)cc1)c1ccccc1", "note": "(centres unmarked) [Example 30, N-[2-(dimethylamino)-1-phenylethyl]-4-pyridin-4-ylbenzamide]", "Ki": "< 50"},
      {"compound": "O=C(NC(CO)c1cccnc1)c1ccc(-c2ccncc2)cc1", "note": "(centres unmarked) [Example 39, N-(2-hydroxy-1-pyridin-3-ylethyl)-4-pyridin-4-ylbenzamide]", "Ki": "50 to 500"},
      {"compound": "C[C@@H](NC(=O)c1ccc(-c2ccncc2)cc1Cl)c1cccc2ccccc12", "note": "[Example 192, 2-chloro-N—((R)-1-naphthalen-1-yl-ethyl)-4-pyridin-4-yl-benzamide]", "Ki": "< 50"},
      {"compound": "COc1cccc([C@@H](C)NC(=O)c2ccc(-c3ccncc3)cc2C)c1", "note": "[Example 96, N—[(R)-1-(3-methoxy-phenyl)-ethyl]-2-methyl-4-pyridin-4-yl-benzamide]", "Ki": "< 50"},
      {"compound": "C[C@@H](NC(=O)c1ccc(-c2ccncc2)cc1)c1ccccc1F", "note": "[Example 88, N-[(1R)-1-(2-fluorophenyl)ethyl]-4-pyridin-4-ylbenzamide]", "Ki": "< 50"},
      {"compound": "COc1ccc(C(CN)NC(=O)c2ccc(-c3ccncc3)cc2)cc1", "note": "(centres unmarked) [Example 44, N-[2-amino-1-(4-methoxyphenyl)ethyl]-4-pyridin-4-ylbenzamide]", "Ki": "50 to 500"},
      {"compound": "COc1cc(-c2ccncc2)ccc1C(=O)NC(CO)c1cccc2ccccc12", "note": "(centres unmarked) [Example 140, N-(2-hydroxy-1-naphthalen-1-yl-ethyl)-2-methoxy-4-pyridin-4-ylbenzamide]", "Ki": "< 50"},
      {"compound": "CC(C)COc1cccc(C(C)NC(=O)c2ccc(-c3ccncc3)cc2)c1", "note": "(centres unmarked) [Example 153, N-[1-(3-isobutoxy-phenyl)-ethyl]-4-pyridin-4-yl-benzamide]", "Ki": "< 50"},
      {"compound": "COCC(Cc1ccccc1)NC(=O)c1ccc(-c2ccncc2)cc1", "note": "(centres unmarked) [Example 16, N-(1-benzyl-2-methoxyethyl)-4-pyridin-4-ylbenzamide]", "Ki": "50 to 500"},
      {"compound": "COc1cccc([C@@H](C)NC(=O)c2ccc(-c3ccncc3)cc2Cl)c1", "note": "[Example 243, 2-chloro-N—[(R)-1-(3-methoxy-phenyl)-ethyl]-4-pyridin-4-yl-benzamide]", "Ki": "< 50"},
      {"compound": "COc1cc(-c2ccncc2)ccc1C(=O)N[C@H](CCO)c1ccccc1", "note": "[Example 94, N—((R)-3-hydroxy-1-phenyl-propyl)-2-methoxy-4-pyridin-4-yl-benzamide]", "Ki": "< 50"},
      {"compound": "O=C(N[C@@H](c1ccccc1)[C@H](O)c1ccccc1)c1ccc(-c2ccncc2)cc1", "note": "[Example 29, N-[(1S,2R)-2-hydroxy-1,2-diphenylethyl]-4-pyridin-4-ylbenzamide]", "Ki": "50 to 500"},
      {"compound": "Cc1ccc([C@@H](C)NC(=O)c2ccc(-c3ccncc3)cc2)cc1", "note": "[Example 82, N-[(1R)-1-(4-methylphenyl)ethyl]-4-pyridin-4-ylbenzamide]", "Ki": "50 to 500"}
    ]}
  ]
}
